In patent US9682995B2, “Amino-substituted isothiazoles” (BAYER PHARMA AKTIENGESELLSCHAFT, priority 2013, dated 2017) one finds IC50 data, which are given here for 20 compounds.

What all share (format): cell-based
One test relates to B16F10. As to the kind of experiment: Proliferation assay (crystal violet), B16F10. To be noted: Mus musculus, B16-F10, 96 h; B16F10, 4 days; read-out: Inhibition of proliferation IC50 B16F10. The procedure: (§1) Cultivated tumor cells (cells were ordered from ATCC, except HeLa-MaTu and HeLa-MaTu-ADR, which were ordered from EPO-GmbH, Berlin) were plated at a density of 1000 to 5000 cells/well, depending on the growth rate of the respective cell line, in a 96-well multititer plate in 200 μL of their respective growth medium supplemented 10% fetal calf serum. After 24 hours, the cells of one plate (zero-point plate) were stained with crystal violet (see below), while the medium of the other plates was replaced by fresh culture medium (200 μl), to which the test substances were added in various concentrations (0 μM, as well as in the range of 0.001-10 μM; the final concentration of the solvent dimethyl sulfoxide was 0.5%). The cells were incubated for 4 days in the presence of test substances. Cell proliferation was determined by staining the cells with crystal violet: the cells were fixed by adding 20 μl/measuring point of an 11% glutaric aldehyde solution for 15 minutes at room temperature. After three washing cycles of the fixed cells with water, the plates were dried at room temperature. The cells were stained by adding 100 μl/measuring point of a 0.1% crystal violet solution (pH 3.0). After three washing cycles of the stained cells with water, the plates were dried at room temperature. The dye was dissolved by adding 100 μl/measuring point of a 10% acetic acid solution. Absorption was determined by photometry at a wavelength of 595 nm. The change of cell number, in percent, was calculated by normalization of the measured values to the absorption values of the zero-point plate (=0%) and the absorption of the untreated (0 μm) cells (=100%). The IC50 values were determined by means of a 4 parameter fit.

The test system of the next test is Caco2. The test can be described thus: Proliferation assay (crystal violet), Caco2. The following applies: Homo sapiens, Caco-2, 96 h; Caco2, 4 days; read-out: Inhibition of proliferation IC50 Caco2. The protocol: as §1
A further test concerns NCI-H460. The test can be described thus: Proliferation assay (crystal violet), NCI-H460. To be noted: Homo sapiens, 96 h; NCI-H460, 4 days; read-out: Inhibition of proliferation IC50 NCI-H460. The procedure: as §1
Another test has as its system DU145. The test can be described thus: Proliferation assay (crystal violet), DU145. To be noted: Homo sapiens, DU-145, 96 h; DU145, 4 days; read-out: Inhibition of proliferation IC50 DU145. The protocol: as §1
A further test concerns HeLa-MaTu-ADR. The test can be described thus: Proliferation assay (crystal violet), HeLa-MaTu-ADR. To be noted: 96 h, 4 days, read-out: Inhibition of proliferation IC50 HeLa-MaTu-ADR. The procedure:
as §1

Turning to `CCc1ccccc1NC(=O)c1c(C)nsc1Nc1ccnc(C#N)n1` [Example 6, 5-[(2-Cyanopyrimidin-4-yl)amino]-N-(2-ethylphenyl)-3-methyl-1,2-thiazole-4-carboxamide], the IC50 with B16F10 came out at 2300 nM; in the test with Caco2, 2300 nM; in the test on NCI-H460, 2100 nM; in the test on DU145, 3000 nM; in the test on HeLa-MaTu-ADR, 1900 nM.
Regarding `CCc1ccccc1NC(=O)c1c(C)nsc1Nc1cnc2ccccc2n1` [Example 19, N-(2-Ethylphenyl)-3-methyl-5-(quinoxalin-2-ylamino)-1,2-thiazole-4-carboxamide], the IC50 worked out at 1800 nM with B16F10; 970 nM in the test with Caco2; 1500 nM in the test on NCI-H460; 2500 nM in the test with DU145; 410 nM in the test with HeLa-MaTu-ADR.
The like results for `COc1ccc(NC(=O)c2c(C)nsc2Nc2cnc3cccc(C)c3n2)cn1` [Example 22, N-(6-methoxypyridin-3-yl)-3-methyl-5-[(8-methylquinoxalin-2-yl)amino]-1,2-thiazole-4-carboxamide] were, in that order, 950 nM, 1600 nM, 790 nM, 2200 nM and 760 nM.
The like results for `COc1ccc(NC(=O)c2c(C)nsc2Nc2cnc3cc(Cl)ccc3n2)cn1` [Example 23, 5-[(6-Chloroquinoxalin-2-yl)amino]-N-(6-methoxypyridin-3-yl)-3-methyl-1,2-thiazole-4-carboxamide] were, in that order, 8400 nM, 2400 nM, 2200 nM, 9400 nM and 2700 nM.
With `Cc1nsc(Nc2cc(C#N)ccn2)c1C(=O)Nc1ccc(F)c(F)c1` [Example 27, 5-[(4-Cyanopyridin-2-yl)amino]-N-(3,4-difluorophenyl)-3-methyl-1,2-thiazole-4-carboxamide], the IC50 was 220 nM with B16F10; 450 nM in the test on Caco2; 220 nM in the test on NCI-H460; 350 nM in the test on DU145; 240 nM in the test with HeLa-MaTu-ADR.
As for `Cc1nsc(Nc2ccc(C#N)cn2)c1C(=O)Nc1ccc(F)c(F)c1` [Example 28, 5-[(5-Cyanopyridin-2-yl)amino]-N-(3,4-difluorophenyl)-3-methyl-1,2-thiazole-4-carboxamide], the IC50 with B16F10 stood at 130 nM; with Caco2, 210 nM; in the test with NCI-H460, 99 nM; in the test on DU145, 320 nM; in the test with HeLa-MaTu-ADR, 120 nM.
As for `CCc1ccccc1NC(=O)c1c(C)nsc1Nc1cnc2cccc(C)c2n1` [Example 33, N-(2-Ethylphenyl)-3-methyl-5-[(8-methylquinoxalin-2-yl)amino]-1,2-thiazole-4-carboxamide], the IC50 was 1400 nM in the test on B16F10; 740 nM in the test on Caco2; 1200 nM in the test with NCI-H460; 1300 nM in the test with DU145; 850 nM in the test with HeLa-MaTu-ADR.
With `CCc1ccccc1NC(=O)c1c(C)nsc1Nc1nc(C)nc2ccccc12` [Example 35, N-(2-Ethylphenyl)-3-methyl-5-[(2-methylquinazolin-4-yl)amino]-1,2-thiazole-4-carboxamide], the IC50 was determined as 1700 nM in the test on B16F10; 1600 nM with Caco2; 1600 nM with NCI-H460; 2400 nM in the test with DU145; 610 nM with HeLa-MaTu-ADR.
As for `Cc1nsc(Nc2cnc3ccccc3n2)c1C(=O)Nc1ccc(Cl)c(F)c1` [Example 40, N-(4-Chloro-3-fluorophenyl)-3-methyl-5-(quinoxalin-2-ylamino)-1,2-thiazole-4-carboxamide], the IC50 in the test on B16F10 turned out to be 440 nM; in the test with Caco2, 470 nM; with NCI-H460, 290 nM; in the test with DU145 it was 590 nM; with HeLa-MaTu-ADR, 330 nM.
`CCc1ccccc1NC(=O)c1c(C)nsc1Nc1cnc2ccc(Cl)cc2n1` [Example 41, 5-[(7-Chloroquinoxalin-2-yl)amino]-N-(2-ethylphenyl)-3-methyl-1,2-thiazole-4-carboxamide]: the IC50 is 680 nM in the test on B16F10; 170 nM in the test with Caco2; 350 nM with NCI-H460; 750 nM in the test on DU145; 640 nM with HeLa-MaTu-ADR.
The like results for `COc1ccc(NC(=O)c2c(C)nsc2Nc2cnc3c(F)c(F)ccc3n2)cn1` [Example 43, 5-[(5,6-Difluoroquinoxalin-2-yl)amino]-N-(6-methoxypyridin-3-yl)-3-methyl-1,2-thiazole-4-carboxamide] were, in that order, 230 nM, 380 nM, 130 nM, 420 nM and 260 nM.
The like results for `COc1ccc(NC(=O)c2c(C)nsc2Nc2cnc3cc(C(F)(F)F)ccc3n2)cn1` [Example 45, N-(6-Methoxypyridin-3-yl)-3-methyl-5-{[6-(trifluoromethyl)quinoxalin-2-yl]amino}-1,2-thiazole-4-carboxamide] were, in that order, 190 nM, 380 nM, 100 nM, 460 nM and 300 nM.
On the same counts, the results for `Cc1nsc(Nc2cnc3cc(F)ccc3n2)c1C(=O)Nc1ccc(F)c(F)c1` [Example 46, N-(3,4-Difluorophenyl)-5-[(6-fluoroquinoxalin-2-yl)amino]-3-methyl-1,2-thiazole-4-carboxamide] are 120 nM, 110 nM, 86 nM, 180 nM and 110 nM.
`COc1ccc(NC(=O)c2c(C)nsc2Nc2nc3c(C(F)(F)F)cccc3s2)cc1F` [Example 47, N-(3-Fluoro-4-methoxyphenyl)-3-methyl-5-{[4-(trifluoromethyl)-1,3-benzothiazol-2-yl]amino}-1,2-thiazole-4-carboxamide]: the IC50 is 110 nM in the test with B16F10; 360 nM with Caco2; 180 nM with NCI-H460; 49 nM with DU145; 83 nM in the test on HeLa-MaTu-ADR.
The like results for `COc1ccc(NC(=O)c2c(C)nsc2Nc2nc3c(C(F)(F)F)cccc3s2)cn1` [Example 48, N-(6-Methoxypyridin-3-yl)-3-methyl-5-{[4-(trifluoromethyl)-1,3-benzothiazol-2-yl]-amino}-1,2-thiazole-4-carboxamide] were, in that order, 430 nM, 430 nM, 210 nM, 600 nM and 350 nM.
Turning to `Cc1nsc(Nc2cnc3ccccc3n2)c1C(=O)Nc1ccc(F)c(F)c1` [Example 50, N-(3,4-Difluorophenyl)-3-methyl-5-(quinoxalin-2-ylamino)-1,2-thiazole-4-carboxamide], the IC50 in the test on B16F10 is 300 nM; in the test on Caco2, 270 nM; with NCI-H460 it was 520 nM; in the test with DU145, 410 nM; with HeLa-MaTu-ADR, 210 nM.
On the same counts, the results for `Cc1nsc(Nc2nc3c(C(F)(F)F)cccc3s2)c1C(=O)Nc1ccc(F)c(F)c1` [Example 51, N-(3,4-Difluorophenyl)-3-methyl-5-{[4-(trifluoromethyl)-1,3-benzothiazol-2-yl]-amino}-1,2-thiazole-4-carboxamide] are 470 nM, 69 nM, 280 nM, 160 nM and 370 nM.
On the same counts, the results for `Cc1nsc(Nc2ccc(C#N)cn2)c1C(=O)Nc1ccc(Cl)c(F)c1` [Example 52, N-(4-Chloro-3-fluorophenyl)-5-[(5-cyanopyridin-2-yl)amino]-3-methyl-1,2-thiazole-4-carboxamide] are 230 nM, 190 nM, 130 nM, 310 nM and 130 nM.
As for `Cc1nsc(Nc2nc3c(C(F)(F)F)cccc3s2)c1C(=O)Nc1ccc(Cl)c(F)c1` [Example 53, N-(4-Chloro-3-fluorophenyl)-3-methyl-5-{[4-(trifluoromethyl)-1,3-benzothiazol-2-yl]amino}-1,2-thiazole-4-carboxamide], the IC50 in the test with B16F10 worked out at 220 nM; in the test with Caco2, 200 nM; in the test with NCI-H460, 520 nM; in the test on DU145, 980 nM; in the test with HeLa-MaTu-ADR, 310 nM.
The like results for `Cc1nsc(Nc2cc(C#N)ccn2)c1C(=O)Nc1ccc(Cl)c(F)c1` [Example 54, N-(4-Chloro-3-fluorophenyl)-5-[(4-cyanopyridin-2-yl)amino]-3-methyl-1,2-thiazole-4-carboxamide] were, in that order, 860 nM, 1300 nM, 210 nM, 1200 nM and 650 nM.
